The target of one experiment is T1, rat TAAR6 (Rattus norvegicus, UniProt Q923Y5).
T1 construct: bovine rhodopsin N-terminal 20 amino acids (Rho tag); expressed in transfected cells; host or cells: HEK293(T) (SEAP assay) or Hana3A (Dual-Glo assay)
The experiment is described as follows: Cell-based receptor activation reporter assay (SEAP / Dual-Glo luciferase). As for the experimental part:
(§1) Fluorescence was measured with a BioTek Microplate reader.
A general note: Reporter assays use an easily measured gene product as a stand-in for the process of interest.

A further experiment has as its target rabbit TAAR8b (Oryctolagus cuniculus, UniProt G1SRV7). Described as above. The protocol:
as §1

Another experiment concerns the target T2, mouse TAAR6 (Mus musculus, UniProt Q5QD13).
T2 construct: bovine rhodopsin N-terminal 20 amino acids (Rho tag); expressed in transfected cells; host or cells: HEK293(T) (SEAP assay) or Hana3A (Dual-Glo assay)
Described as above. As for the experimental part: as §1

The target in another experiment is T3, rat TAAR7a (Rattus norvegicus, UniProt Q923Y2).
T3 construct: bovine rhodopsin N-terminal 20 amino acids (Rho tag); expressed in transfected cells; host or cells: HEK293(T) (SEAP assay) or Hana3A (Dual-Glo assay)
T3 sequence (Q923Y2 whole entry): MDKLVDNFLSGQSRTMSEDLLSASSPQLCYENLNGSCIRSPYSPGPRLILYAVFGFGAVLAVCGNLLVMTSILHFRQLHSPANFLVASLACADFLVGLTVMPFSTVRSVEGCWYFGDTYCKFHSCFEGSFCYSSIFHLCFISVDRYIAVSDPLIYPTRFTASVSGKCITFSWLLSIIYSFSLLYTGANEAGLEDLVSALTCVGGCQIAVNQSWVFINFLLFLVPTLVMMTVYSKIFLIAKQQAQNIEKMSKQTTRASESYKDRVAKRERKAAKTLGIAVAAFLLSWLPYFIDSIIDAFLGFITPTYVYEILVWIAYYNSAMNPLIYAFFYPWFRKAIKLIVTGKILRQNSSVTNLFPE
The description is as above. The protocol: as §1

The next experiment has as its target T4, mouse TAAR7d (Mus musculus, UniProt Q5QD10).
T4 construct: bovine rhodopsin N-terminal 20 amino acids (Rho tag); expressed in transfected cells; host or cells: HEK293(T) (SEAP assay) or Hana3A (Dual-Glo assay)
The description is as above. The protocol:
as §1

In another experiment the target is T5, rat TAAR8a (Rattus norvegicus, UniProt Q923X9).
T5 construct: bovine rhodopsin N-terminal 20 amino acids (Rho tag); expressed in transfected cells; host or cells: HEK293(T) (SEAP assay) or Hana3A (Dual-Glo assay)
T5 sequence (Q923X9 whole entry): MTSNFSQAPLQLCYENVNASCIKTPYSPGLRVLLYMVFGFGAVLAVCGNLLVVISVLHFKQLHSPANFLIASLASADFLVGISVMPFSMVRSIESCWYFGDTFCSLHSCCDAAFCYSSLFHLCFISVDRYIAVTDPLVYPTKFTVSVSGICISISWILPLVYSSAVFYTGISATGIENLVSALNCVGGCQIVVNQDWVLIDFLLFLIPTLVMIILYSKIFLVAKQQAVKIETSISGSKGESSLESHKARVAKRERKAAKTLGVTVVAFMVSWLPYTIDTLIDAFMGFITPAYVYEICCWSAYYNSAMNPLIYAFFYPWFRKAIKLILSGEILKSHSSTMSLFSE
The experiment is described as above. As for the experimental part:
as §1

The target in another experiment is cat TAAR6b (Felis catus, UniProt A0ABI7X994). The experiment is described as above. As for the experimental part:
as §1

The target in another experiment is wild boar TAAR7 (Sus scrofa, UniProt F1S3Q1). The description is as above. As for the experimental part:
as §1

A further experiment addresses T6, rat TAAR9 (Rattus norvegicus, UniProt Q923Y6).
T6 construct: bovine rhodopsin N-terminal 20 amino acids (Rho tag); expressed in transfected cells; host or cells: HEK293(T) (SEAP assay) or Hana3A (Dual-Glo assay)
T6 sequence (Q923Y6 1-338): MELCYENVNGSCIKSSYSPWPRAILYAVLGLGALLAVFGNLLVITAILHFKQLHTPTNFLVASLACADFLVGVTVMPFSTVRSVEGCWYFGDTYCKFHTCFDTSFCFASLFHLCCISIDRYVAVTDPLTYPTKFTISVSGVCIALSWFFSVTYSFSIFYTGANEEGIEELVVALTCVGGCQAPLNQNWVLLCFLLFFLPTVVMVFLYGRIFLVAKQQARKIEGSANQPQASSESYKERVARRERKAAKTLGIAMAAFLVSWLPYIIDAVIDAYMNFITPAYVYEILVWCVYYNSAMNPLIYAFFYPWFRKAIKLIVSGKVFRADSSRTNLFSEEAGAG
Described as above. As for the experimental part:
as §1

A further experiment deals with TARL1. The experiment is described as follows: Response to 16 ligands at 10 µM, luciferase assay. It counts as cell-based. To be noted: fig. 5B. The protocol: (§2) Ligand profiles and expression patterns of HTR4, TARL, and TAAR1. (A) qPCR analysis of different receptors in zebrafish tissues. Gapdh serves as a control. (B) Response of HTR4, TARL, TAARC1, and TAAR1 to 16 ligands at 10 μM. The heatmap is based on the ratio of fluorescence intensity of ligand–receptor interaction and no ligand controls in the luciferase assay. […] (C) PhyloPCA analysis on the responses of HTR4, TARL, TAARC1, and TAAR1 to these 16 ligands. […] Dots colored by receptor clades represent the ligand responses of receptors on the first two PC axes. Ligand eigenvectors are represented by lines and colored according to the ligand clusters. A ligand name is shown at the tip of the line if its eigenvector has a higher contribution (compared with other ligands) to either PC1 or PC2. […] (D) The presence of HTR4, TARL1, TARL2, and TAAR1 in several representative species in vertebrates is plotted. […]
(§3) Hana3A cells were plated onto 96-well plates (Greiner bio-one) with 50 µl growth medium (DMEM medium with 10% BCS and 5% penicillin–streptomycin solution with puromycin) and cultured at 37 °C with 5% CO2. […] The chemiluminescence of firefly luciferase and renilla luciferase were measured with a Biotek Microplate reader using the Dual-Glo Luciferase Assay System (Promega).

For the next experiment, the system named is TARL2. Briefly: Response to 16 ligands at 10 µM, luciferase assay. To be noted: fig. 5B. The experiment is classed as cell-based, coelacanth and shark. The protocol: as §2, §3
The target of a further experiment is zebrafish TAAR12j (Danio rerio, UniProt Q5QNN7). Briefly: Cell-based receptor activation reporter assay (SEAP / Dual-Glo luciferase). The protocol:
as §1

A further experiment has as its target hamster TAAR4 (Mesocricetus auratus, UniProt A0A1U7Q3I9). The description is as above. As for the experimental part: as §1
Another experiment deals with guinea pig TAAR4 (Cavia porcellus, UniProt H0W119). The description is as above. As for the experimental part: as §1
guinea pig TAAR4, sequence (H0W119 entry or part of it): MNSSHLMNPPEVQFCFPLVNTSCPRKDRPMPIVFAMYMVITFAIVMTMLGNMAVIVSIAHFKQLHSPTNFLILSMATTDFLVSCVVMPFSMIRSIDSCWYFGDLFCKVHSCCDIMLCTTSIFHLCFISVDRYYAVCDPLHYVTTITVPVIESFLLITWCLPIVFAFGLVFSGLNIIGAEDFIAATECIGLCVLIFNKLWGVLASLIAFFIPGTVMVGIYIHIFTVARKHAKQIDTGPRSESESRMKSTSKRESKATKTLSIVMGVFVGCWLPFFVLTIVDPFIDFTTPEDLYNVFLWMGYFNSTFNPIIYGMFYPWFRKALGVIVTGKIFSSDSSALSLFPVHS
In a further experiment the target is cat TAAR4 (Felis catus, UniProt A0ABI7X9K0). The experiment is described as above. The protocol:
as §1

In the next experiment the target is horse TAAR4 (Equus caballus, UniProt F7BPI5). The description is as above. As for the experimental part:
as §1

The target in the next experiment is cow TAAR4 (Bos taurus, UniProt F1MNY9). Described as above. The protocol:
as §1

In another experiment the target is T7, mouse TAAR8a (Mus musculus, UniProt Q5QD07).
T7 construct: bovine rhodopsin N-terminal 20 amino acids (Rho tag); expressed in transfected cells; host or cells: HEK293(T) (SEAP assay) or Hana3A (Dual-Glo assay)
T7 sequence (Q5QD07 whole entry): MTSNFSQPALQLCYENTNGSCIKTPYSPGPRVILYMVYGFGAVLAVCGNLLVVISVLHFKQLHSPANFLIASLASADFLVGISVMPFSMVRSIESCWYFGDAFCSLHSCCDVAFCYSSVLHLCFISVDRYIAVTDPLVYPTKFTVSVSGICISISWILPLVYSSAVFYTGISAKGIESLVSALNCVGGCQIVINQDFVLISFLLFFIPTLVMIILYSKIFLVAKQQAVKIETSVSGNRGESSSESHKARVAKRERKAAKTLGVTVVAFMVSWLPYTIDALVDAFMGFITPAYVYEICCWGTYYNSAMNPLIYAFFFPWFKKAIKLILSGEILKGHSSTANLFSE
The experiment is described as above. The protocol: as §1

A further experiment concerns the target cow TAAR5 (Bos taurus, UniProt F1MTC9). The experiment is described as follows: cell-based. Particulars: EC50 (μM). The source says:
(§4) Next, we conducted high-throughput screening to further explore the functional properties of these aminergic receptors. We cloned 248 TAARs from 11 mammals (human, mouse, rat, guinea pig, hamster, cat, horse, rabbit, sheep, rhesus, and wild boar), two reptiles (alligator and chicken), six teleosts (zebrafish, catfish, fugu, medaka, salmon, and pufferfish), one lobed-finned fish (coelacanth), one holost fish (spotted gar), and one cartilaginous fish (bamboo shark) (fig. 2A). We also cloned eight TARLs from coelacanth, zebrafish, catfish, fugu, medaka, spotted gar, shark, and 28 TARLLs from sea lamprey (supplementary table S2, Supplementary Material online). In addition, we cloned two HTR4s from mouse and zebrafish. We then challenged all of the cloned receptors with a ligand library comprised 97 amines at 100 µM.
(§5) HEK293 cells were plated onto poly-D-lysine (Sigma–Aldrich) preincubated 96-well plates (Corning) with 50 µl growth medium (DMEM medium with 10% BCS and 5% penicillin–streptomycin solution) and cultured for 18–24 h. Receptor plasmids were cotransfected with Cre-SEAP plasmid using polyethylenimine (PEI, Polysciences) and incubated at 37 °C with 5% CO2. About 4 h later, cells were incubated with or without test compounds diluted in serum-free DMEM for 48 h, followed by incubating for 2 h at 70 °C. After returning to room temperature, 50 µl supernatant from each well was incubated with an equal volume of 0.3 mM 4-methylumbelliferyl phosphate (4-MUP, Sigma–Aldrich) in 2 M diethanolamine bicarbonate (Sigma–Aldrich), pH 10.0 for 15 min. Fluorescence was measured with a BioTek Microplate reader.
(§6) Hana3A cells were plated onto 96-well plates (Greiner bio-one) with 50 µl growth medium (DMEM medium with 10% BCS and 5% penicillin–streptomycin solution with puromycin) and cultured at 37 °C with 5% CO2. After 18–24 h, cells in each well were cotransfected with 50 ng receptor plasmid, 10 ng CRE-Luc, 10 ng pRL-SV40, and 10 ng mRTPs using Lipofectamine 2000 (Invitrogen), and incubated for 18 h. Medium was then replaced by 25 µl CD293 (Invitrogen) containing 1% glutamine with or without test compounds for 4 h. The chemiluminescence of firefly luciferase and renilla luciferase were measured with a Biotek Microplate reader using the Dual-Glo Luciferase Assay System (Promega).

Another experiment has as its target hamster TAAR5 (Mesocricetus auratus, UniProt A0A1U7QEC3). The experiment is described as follows: cell-based.
From the text: as §4, §5, §6

In a further experiment the target is shark TAARS1b (Chiloscyllium punctatum, UniProt A0A401S5C1). Briefly: Cell-based receptor activation reporter assay (SEAP / Dual-Glo luciferase). Set-up: species or system bamboo shark. As for the experimental part:
as §1

A further experiment deals with sheep TAAR5 (Ovis aries, UniProt A0ACI6PZ16). The experiment is described as above. The protocol: as §1
sheep TAAR5, sequence (A0ACI6PZ16 entry or part of it): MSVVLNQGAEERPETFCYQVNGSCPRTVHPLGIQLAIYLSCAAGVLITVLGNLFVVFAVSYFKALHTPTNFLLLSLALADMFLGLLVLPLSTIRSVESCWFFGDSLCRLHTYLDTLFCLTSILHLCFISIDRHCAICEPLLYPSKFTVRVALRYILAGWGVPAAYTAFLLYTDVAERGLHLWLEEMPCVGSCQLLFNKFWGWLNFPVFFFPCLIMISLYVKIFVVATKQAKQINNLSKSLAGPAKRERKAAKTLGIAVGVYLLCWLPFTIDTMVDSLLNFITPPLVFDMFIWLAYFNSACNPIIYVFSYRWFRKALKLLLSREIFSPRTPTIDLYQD
For a further experiment, the target named is cat TAAR5 (Felis catus, UniProt A0ABI7YAE2). The description is as above. The protocol: as §1

From paper PMC8890504, “Evolution of Brain-Expressed Biogenic Amine Receptors into Olfactory Trace Amine-Associated Receptors” (Molecular Biology and Evolution, 2022) come the findings set out here.

Several values for one entry are separate records, joined by “and”; a condition that tells them apart may be missing. Equal entries are not always repeated.

hamster TAAR4, sequence (A0A1U7Q3I9 entry or part of it): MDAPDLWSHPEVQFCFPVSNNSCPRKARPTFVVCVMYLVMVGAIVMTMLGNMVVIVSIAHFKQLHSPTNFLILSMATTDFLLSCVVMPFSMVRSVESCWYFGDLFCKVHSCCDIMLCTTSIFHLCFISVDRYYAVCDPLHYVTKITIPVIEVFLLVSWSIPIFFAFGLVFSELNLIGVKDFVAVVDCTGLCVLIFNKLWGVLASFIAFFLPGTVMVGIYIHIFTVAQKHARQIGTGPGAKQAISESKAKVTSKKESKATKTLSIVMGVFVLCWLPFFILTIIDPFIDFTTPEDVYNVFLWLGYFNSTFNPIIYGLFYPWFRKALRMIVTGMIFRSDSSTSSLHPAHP
cow TAAR5, sequence (F1MTC9 entry or part of it): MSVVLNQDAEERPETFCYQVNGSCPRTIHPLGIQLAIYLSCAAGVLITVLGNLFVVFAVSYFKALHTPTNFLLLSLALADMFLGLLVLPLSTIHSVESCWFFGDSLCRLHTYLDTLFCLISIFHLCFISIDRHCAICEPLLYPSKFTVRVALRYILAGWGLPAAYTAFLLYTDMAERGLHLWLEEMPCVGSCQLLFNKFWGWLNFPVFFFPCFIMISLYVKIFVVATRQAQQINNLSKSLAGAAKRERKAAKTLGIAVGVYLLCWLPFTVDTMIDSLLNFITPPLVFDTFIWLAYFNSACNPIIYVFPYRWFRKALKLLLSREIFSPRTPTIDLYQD
wild boar TAAR7, sequence (F1S3Q1 entry or part of it): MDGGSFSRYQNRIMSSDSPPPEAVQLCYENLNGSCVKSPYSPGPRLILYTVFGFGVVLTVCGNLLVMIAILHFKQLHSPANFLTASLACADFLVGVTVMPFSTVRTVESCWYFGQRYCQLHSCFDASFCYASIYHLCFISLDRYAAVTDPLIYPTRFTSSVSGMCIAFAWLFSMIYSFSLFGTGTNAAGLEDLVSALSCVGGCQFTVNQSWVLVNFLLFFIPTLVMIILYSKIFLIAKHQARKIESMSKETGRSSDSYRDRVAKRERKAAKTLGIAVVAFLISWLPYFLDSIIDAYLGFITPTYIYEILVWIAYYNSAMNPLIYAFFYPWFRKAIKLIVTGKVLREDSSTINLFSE
cat TAAR4, sequence (A0ABI7X9K0 entry or part of it): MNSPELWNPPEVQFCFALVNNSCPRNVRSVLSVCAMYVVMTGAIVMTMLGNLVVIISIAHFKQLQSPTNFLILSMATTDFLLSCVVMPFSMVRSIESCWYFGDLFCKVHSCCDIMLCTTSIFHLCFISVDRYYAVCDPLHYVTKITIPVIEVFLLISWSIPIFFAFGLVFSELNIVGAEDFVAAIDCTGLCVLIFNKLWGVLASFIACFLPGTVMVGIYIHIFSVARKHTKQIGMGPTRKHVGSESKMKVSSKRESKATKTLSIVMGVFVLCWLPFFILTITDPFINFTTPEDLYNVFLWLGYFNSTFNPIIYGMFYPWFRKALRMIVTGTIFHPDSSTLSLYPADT
horse TAAR4, sequence (F7BPI5 entry or part of it): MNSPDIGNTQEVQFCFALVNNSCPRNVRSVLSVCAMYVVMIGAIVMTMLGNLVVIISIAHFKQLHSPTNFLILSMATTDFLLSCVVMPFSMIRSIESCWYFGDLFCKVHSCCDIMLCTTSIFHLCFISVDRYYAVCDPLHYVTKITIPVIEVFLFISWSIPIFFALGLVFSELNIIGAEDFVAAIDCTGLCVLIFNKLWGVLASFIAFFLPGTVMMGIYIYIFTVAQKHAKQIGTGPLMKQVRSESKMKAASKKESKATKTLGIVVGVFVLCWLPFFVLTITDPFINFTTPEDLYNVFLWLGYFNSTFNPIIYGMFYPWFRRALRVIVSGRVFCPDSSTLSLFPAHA
zebrafish TAAR12j, sequence (Q5QNN7 entry or part of it): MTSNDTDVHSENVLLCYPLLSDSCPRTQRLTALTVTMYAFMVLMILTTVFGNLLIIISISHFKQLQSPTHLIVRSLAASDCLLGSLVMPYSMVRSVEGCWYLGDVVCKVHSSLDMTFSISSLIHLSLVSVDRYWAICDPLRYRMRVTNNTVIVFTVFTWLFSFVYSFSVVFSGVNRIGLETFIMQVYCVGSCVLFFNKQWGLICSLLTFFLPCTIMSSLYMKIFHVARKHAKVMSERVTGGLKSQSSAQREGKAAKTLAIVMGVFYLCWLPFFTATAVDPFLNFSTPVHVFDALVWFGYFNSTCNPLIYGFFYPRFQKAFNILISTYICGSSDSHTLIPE
T2 sequence (Q5QD13 whole entry): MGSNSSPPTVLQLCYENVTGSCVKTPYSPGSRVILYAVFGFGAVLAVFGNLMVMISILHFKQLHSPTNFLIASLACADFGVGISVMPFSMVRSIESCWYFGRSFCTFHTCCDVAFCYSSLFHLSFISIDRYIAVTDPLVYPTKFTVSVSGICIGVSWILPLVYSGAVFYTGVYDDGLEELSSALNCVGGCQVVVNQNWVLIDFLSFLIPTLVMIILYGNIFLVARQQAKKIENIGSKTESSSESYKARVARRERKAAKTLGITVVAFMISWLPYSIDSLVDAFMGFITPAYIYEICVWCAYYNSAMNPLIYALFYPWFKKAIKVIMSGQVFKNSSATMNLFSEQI
hamster TAAR5, sequence (A0A1U7QEC3 entry or part of it): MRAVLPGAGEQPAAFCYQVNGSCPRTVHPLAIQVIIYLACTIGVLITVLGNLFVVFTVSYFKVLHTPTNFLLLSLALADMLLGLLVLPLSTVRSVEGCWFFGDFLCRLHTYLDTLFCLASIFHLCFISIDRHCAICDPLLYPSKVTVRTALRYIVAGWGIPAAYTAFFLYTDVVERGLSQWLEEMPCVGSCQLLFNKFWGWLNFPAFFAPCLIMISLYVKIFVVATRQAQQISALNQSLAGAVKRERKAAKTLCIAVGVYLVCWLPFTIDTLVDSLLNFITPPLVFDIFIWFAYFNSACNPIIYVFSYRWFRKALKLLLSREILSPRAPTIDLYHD
T1 sequence (Q923Y5 whole entry): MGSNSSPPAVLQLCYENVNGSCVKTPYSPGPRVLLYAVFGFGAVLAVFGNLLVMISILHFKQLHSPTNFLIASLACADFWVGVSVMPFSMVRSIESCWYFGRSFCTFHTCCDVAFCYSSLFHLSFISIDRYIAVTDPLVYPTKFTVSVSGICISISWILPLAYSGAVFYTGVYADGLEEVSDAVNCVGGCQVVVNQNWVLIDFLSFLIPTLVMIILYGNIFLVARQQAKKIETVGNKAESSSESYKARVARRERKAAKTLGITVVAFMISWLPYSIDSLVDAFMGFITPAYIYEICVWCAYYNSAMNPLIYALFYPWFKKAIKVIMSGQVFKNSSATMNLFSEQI

On to `CN(C)C1CCCCC1` [N,N-dimethylcyclohexylamine], for which the EC50 (usually the midpoint of the concentration-response curve) at rat TAAR6 was approximately 50 µM; at rabbit TAAR8b, approximately 50 µM; at mouse TAAR6 it was approximately 50 µM; at rat TAAR7a it was 49.5 µM; at mouse TAAR7d, 107 µM; on rat TAAR8a, 27.6 µM. In addition, the EC50 is 101 µM at cat TAAR6b; 50 µM and ~50 µM at wild boar TAAR7; approximately 30 µM on rat TAAR9.
Turning to `NCCc1ccccc1` [Phenylethylamine, phenylethylamine], the TARL1 ligand profile result in the experiment with TARL1 is recorded as “ligands include”. Besides, the TARL2 ligand profile entry with TARL2 is given as “cannot recognize”. The EC50 is 4.8 µM at zebrafish TAAR12j; 300 µM and ~300 µM at hamster TAAR4; 150 µM and ~150 µM on guinea pig TAAR4; 30 µM and ~30 µM at cat TAAR4; 100 µM and ~100 µM on horse TAAR4; 98.4 µM at cow TAAR4.
As for `C1CCNCC1` [Piperidine, piperidine], the concentration giving a half-maximal response (EC50) on mouse TAAR8a was approximately 300 µM.
In the case of `CN(C)C` [Trimethylamine, trimethylamine], the EC50 on cow TAAR5 was 300 µM and ~300 µM; at hamster TAAR5, 2.3 µM; on shark TAARS1b, 1.4 µM; on sheep TAAR5, 500 µM and ~500 µM; at cat TAAR5 it was 6.9 µM.
